Measured values: paper PMC11897524 (Frontiers in Pharmacology, 2025)

Key:
Assay in all cases: SelectScreen Z′-LYTE kinase assay
Format in all cases: biochemical
[1] = target: ABL1 (Homo sapiens, UniProt P00519)
Procedure: (§1) The kinase selectivity profile of BST-4 was performed by the SelectScreen kinase profiling service (Thermo Fisher Scientific). Kinase selectivity assay was performed using Z′-LYTE ™ screening protocol kit. Briefly, the test compounds were screened in 1% DMSO (final). For 10-point titrations, perform a 3-fold dilution starting at a starting concentration of 50 µM. Then 2.5 µL 4× test compound, 2.4 µL kinase buffer, 5 µL 2× kinase mixture and 2.5 µL 4× ATP solution was added in black 384-well plate. After shaking for 30 s, the plates were incubated for 60 min at room temperature. Add developing reagent solution and shake the plate for 30 s, then incubate for 1 h at room temperature. The Fluorescence intensity per well was read using a fluorescence plate reader. SelectScreen® Kinase Profiling Service used XLfit from IDBS. The dose response curve was curve fit to model number 205 (sigmoidal dose-response model) and inhibition rates were calculated. 50% inhibition was used as a activity threshold. IC50 values were calculated based on curve fitting.

[2] = target: BLK (Homo sapiens, UniProt P51451)
Procedure: as §1

[3] = target: BMX (Homo sapiens, UniProt P51813)
Procedure: as §1

[4] = target: BTK (Homo sapiens, UniProt Q06187)
Procedure: as §1

[5] = target: CSF1R (Homo sapiens, UniProt P07333)
Procedure: as §1

[6] = target: EGFR (Homo sapiens, UniProt P00533)
Procedure: as §1

[7] = target: EPHA1 (Homo sapiens, UniProt P21709)
Procedure: as §1

[8] = target: EPHA3 (Homo sapiens, UniProt P29320)
Procedure: as §1

[9] = target: EPHA5 (Homo sapiens, UniProt P54756)
Procedure: as §1

[10] = target: EPHA8 (Homo sapiens, UniProt P29322)
Procedure: as §1

[11] = target: EPHB1 (Homo sapiens, UniProt P54762)
Procedure: as §1

[12] = target: ERBB4 (Homo sapiens, UniProt Q15303)
Procedure: as §1

[13] = target: FES (Homo sapiens, UniProt P07332)
Procedure: as §1

[14] = target: FGFR2 (Homo sapiens, UniProt P21802)
Procedure: as §1

[15] = target: FGFR3 (Homo sapiens, UniProt P22607)
Procedure: as §1

[16] = target: FGR (Homo sapiens, UniProt P09769)
Procedure: as §1

[17] = target: FLT3 (Homo sapiens, UniProt P36888)
Procedure: as §1

[18] = target: FLT4 (Homo sapiens, UniProt P35916)
Procedure: as §1

[19] = target: FYN (Homo sapiens, UniProt P06241)
Procedure: as §1

[20] = target: HCK (Homo sapiens, UniProt P08631)
Procedure: as §1

[21] = target: INSRR (Homo sapiens, UniProt P14616)
Procedure: as §1

[22] = target: LCK (Homo sapiens, UniProt P06239)
Procedure: as §1

[23] = target: LTK (Homo sapiens, UniProt P29376)
Procedure: as §1

[24] = target: MERTK (Homo sapiens, UniProt Q12866)
Procedure: as §1

[25] = target: PDGFRB (Homo sapiens, UniProt P09619)
Procedure: as §1

[26] = target: PTK6 (Homo sapiens, UniProt Q13882)
Procedure: as §1

[27] = target: SRC (Homo sapiens, UniProt P12931)
Procedure: as §1

[28] = target: SRMS (Homo sapiens, UniProt Q9H3Y6)
Procedure: as §1

[29] = target: TEK (Homo sapiens, UniProt Q02763)
Procedure: as §1

[30] = target: TNK2 (Homo sapiens, UniProt Q07912)
Procedure: as §1

[31] = target: TXK (Homo sapiens, UniProt P42681)
Procedure: as §1

[32] = target: TYK2 (Homo sapiens, UniProt P29597)
Procedure: as §1

Sequence of TNK2 (Q07912 whole entry): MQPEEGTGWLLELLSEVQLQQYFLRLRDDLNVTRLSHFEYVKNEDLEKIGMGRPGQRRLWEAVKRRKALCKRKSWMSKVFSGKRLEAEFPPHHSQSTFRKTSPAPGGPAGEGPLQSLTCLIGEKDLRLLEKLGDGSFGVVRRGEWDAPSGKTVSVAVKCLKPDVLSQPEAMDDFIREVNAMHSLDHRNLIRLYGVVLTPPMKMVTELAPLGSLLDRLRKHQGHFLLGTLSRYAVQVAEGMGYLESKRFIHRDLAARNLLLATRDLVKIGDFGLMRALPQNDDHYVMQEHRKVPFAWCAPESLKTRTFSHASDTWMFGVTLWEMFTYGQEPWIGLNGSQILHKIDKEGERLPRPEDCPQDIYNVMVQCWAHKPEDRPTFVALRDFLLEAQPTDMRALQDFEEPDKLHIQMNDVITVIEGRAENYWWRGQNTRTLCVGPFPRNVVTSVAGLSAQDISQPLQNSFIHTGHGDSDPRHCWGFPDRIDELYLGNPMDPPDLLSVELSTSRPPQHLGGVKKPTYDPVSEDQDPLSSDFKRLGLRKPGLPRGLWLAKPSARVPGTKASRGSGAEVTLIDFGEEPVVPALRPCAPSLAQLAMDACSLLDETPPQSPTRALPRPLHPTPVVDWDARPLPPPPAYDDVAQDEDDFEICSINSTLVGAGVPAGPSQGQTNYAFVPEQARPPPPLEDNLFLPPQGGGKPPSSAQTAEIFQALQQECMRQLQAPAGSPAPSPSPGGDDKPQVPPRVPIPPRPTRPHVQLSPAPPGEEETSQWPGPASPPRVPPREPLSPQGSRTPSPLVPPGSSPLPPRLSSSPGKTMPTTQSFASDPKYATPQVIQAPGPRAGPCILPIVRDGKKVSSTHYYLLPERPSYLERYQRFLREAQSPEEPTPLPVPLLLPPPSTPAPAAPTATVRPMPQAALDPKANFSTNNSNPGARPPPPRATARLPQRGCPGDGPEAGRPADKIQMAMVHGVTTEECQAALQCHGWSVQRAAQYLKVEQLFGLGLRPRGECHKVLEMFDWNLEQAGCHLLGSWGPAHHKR
Sequence of EGFR (P00533 25-1210): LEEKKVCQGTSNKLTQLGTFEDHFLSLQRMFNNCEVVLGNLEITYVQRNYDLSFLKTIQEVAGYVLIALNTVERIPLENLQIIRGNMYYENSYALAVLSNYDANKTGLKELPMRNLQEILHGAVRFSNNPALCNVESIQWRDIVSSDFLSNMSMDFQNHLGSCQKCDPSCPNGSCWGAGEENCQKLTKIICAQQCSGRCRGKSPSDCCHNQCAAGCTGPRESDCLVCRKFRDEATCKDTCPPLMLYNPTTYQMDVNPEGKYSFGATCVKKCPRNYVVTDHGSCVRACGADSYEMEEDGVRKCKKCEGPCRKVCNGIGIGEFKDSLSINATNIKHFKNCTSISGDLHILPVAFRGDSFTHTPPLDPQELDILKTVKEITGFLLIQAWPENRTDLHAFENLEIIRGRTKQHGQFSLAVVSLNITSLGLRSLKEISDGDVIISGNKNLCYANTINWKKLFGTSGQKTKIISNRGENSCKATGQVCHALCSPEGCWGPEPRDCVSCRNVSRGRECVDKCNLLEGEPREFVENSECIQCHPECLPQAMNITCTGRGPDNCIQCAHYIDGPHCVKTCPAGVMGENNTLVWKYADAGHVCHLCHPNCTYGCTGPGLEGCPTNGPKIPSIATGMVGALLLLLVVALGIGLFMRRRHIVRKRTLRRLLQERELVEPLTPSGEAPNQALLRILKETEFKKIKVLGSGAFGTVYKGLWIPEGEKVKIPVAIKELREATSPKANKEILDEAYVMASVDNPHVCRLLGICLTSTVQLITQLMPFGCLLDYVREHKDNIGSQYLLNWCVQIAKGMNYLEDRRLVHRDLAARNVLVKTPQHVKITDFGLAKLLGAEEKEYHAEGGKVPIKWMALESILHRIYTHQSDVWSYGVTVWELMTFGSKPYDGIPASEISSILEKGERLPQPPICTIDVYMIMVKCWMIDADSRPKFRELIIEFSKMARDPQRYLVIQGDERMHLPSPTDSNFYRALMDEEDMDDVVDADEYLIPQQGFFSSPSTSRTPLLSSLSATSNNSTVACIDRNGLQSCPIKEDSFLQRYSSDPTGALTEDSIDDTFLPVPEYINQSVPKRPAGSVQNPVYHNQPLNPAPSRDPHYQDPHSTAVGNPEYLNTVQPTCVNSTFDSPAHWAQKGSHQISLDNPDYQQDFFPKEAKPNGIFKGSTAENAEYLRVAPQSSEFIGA
Sequence of EPHB1 (P54762 18-984): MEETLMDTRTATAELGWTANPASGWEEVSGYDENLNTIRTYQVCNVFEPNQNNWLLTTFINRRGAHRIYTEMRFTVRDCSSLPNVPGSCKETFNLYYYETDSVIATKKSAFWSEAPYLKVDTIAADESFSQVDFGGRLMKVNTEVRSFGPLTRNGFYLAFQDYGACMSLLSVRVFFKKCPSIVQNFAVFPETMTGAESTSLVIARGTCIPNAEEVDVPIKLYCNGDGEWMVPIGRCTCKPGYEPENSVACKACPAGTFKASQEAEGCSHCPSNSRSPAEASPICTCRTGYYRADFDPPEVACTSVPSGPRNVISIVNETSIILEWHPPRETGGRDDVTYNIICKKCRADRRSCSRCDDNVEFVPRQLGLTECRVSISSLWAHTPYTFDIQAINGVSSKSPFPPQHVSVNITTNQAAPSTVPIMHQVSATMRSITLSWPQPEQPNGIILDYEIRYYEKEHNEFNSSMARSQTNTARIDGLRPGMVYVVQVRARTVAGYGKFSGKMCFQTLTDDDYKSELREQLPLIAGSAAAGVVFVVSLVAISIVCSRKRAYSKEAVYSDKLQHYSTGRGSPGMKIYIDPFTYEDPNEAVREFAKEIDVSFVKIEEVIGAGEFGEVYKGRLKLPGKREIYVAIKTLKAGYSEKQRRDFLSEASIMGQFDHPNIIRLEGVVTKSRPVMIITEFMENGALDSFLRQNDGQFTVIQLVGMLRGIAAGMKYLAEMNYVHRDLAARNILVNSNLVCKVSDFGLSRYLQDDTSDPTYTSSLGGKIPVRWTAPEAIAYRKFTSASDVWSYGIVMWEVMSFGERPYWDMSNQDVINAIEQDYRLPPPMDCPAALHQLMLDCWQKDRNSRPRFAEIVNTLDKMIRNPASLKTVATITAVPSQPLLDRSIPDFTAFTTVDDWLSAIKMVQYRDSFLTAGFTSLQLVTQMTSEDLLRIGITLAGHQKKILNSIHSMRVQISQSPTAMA
Sequence of FLT3 (P36888 27-993): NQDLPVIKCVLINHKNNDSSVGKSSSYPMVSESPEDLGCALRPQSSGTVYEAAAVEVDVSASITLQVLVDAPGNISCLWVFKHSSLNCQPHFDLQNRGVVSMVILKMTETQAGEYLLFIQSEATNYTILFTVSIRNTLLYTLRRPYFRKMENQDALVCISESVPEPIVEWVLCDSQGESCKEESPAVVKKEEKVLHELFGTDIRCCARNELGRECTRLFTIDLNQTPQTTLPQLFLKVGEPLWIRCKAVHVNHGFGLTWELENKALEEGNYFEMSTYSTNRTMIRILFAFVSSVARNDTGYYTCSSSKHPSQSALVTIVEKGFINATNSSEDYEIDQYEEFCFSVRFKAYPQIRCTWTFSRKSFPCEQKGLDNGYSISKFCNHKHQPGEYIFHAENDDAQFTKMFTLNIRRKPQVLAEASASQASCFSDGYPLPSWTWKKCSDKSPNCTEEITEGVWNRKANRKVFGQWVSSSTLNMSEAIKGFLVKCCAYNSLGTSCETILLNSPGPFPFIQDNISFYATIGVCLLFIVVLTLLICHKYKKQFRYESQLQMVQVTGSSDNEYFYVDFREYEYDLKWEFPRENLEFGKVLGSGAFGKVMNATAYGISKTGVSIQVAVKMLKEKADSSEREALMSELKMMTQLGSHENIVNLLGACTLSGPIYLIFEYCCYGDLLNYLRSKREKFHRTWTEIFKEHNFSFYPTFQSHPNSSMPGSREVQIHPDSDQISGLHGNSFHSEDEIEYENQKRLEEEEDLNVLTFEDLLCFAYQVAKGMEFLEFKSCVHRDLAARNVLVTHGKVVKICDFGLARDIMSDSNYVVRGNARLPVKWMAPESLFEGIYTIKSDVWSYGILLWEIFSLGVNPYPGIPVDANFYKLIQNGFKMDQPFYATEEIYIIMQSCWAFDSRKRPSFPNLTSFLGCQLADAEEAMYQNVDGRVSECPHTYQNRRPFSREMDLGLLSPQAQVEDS
Sequence of BTK (Q06187 whole entry): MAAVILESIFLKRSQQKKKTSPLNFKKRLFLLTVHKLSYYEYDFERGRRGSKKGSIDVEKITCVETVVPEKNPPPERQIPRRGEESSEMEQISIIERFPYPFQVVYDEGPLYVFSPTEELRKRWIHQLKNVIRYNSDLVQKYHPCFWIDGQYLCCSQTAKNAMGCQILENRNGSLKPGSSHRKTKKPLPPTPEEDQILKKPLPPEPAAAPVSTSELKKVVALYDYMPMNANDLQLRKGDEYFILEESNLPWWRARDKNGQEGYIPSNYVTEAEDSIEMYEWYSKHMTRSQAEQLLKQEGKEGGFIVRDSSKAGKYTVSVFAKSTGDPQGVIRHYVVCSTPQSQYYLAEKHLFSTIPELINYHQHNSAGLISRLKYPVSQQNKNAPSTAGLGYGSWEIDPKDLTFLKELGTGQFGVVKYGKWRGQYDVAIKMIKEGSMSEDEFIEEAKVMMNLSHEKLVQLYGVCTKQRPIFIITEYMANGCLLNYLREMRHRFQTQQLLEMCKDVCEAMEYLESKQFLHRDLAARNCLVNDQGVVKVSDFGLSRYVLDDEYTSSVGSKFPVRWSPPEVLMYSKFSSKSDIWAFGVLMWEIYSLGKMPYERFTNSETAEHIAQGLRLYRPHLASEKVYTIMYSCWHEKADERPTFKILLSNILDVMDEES

For `CCS(=O)(=O)Cc1cnc(Oc2c(F)cc(F)cc2OCCCCOc2ccc(/C=C/c3cc(OC)cc(OC)c3)cc2)c(-c2cc(C)c3c(=O)[nH]ccn23)c1` [BST-4], the IC50 [1] was greater than 10 µM, the inhibition at 1 µM [1] was 0.31% and the IC50 [2] was greater than 10 µM. It also gave an inhibition at 1 µM [2] of 0.54%, an IC50 [3] greater than 10 µM and an inhibition at 1 µM [3] of 3.05%. The IC50 [4] was greater than 10 µM, the inhibition at 1 µM [4] was 0.11% and the IC50 [5] was greater than 10 µM. The inhibition at 1 µM [5] was 2.02%, the IC50 [6] was greater than 10 µM and the inhibition at 1 µM [6] was 0.37%. For the same molecule, the IC50 [7] was greater than 10 µM, the inhibition at 1 µM [7] was 0.02% and the IC50 [8] was greater than 10 µM. The inhibition at 1 µM [8] was 0.89%, the IC50 [9] was greater than 10 µM and the inhibition at 1 µM [9] was 3.17%. It also gave an IC50 [10] greater than 10 µM, an inhibition at 1 µM [10] of 0.72% and an IC50 [11] greater than 10 µM. For the same molecule, the inhibition at 1 µM [11] was 3.35%, the IC50 [12] was greater than 10 µM and the inhibition at 1 µM [12] was 0.78%. It also gave an IC50 [13] greater than 10 µM, an inhibition at 1 µM [13] of 0.05% and an IC50 [14] greater than 10 µM. The inhibition at 1 µM [14] was 0.45%, the IC50 [15] was greater than 10 µM and the inhibition at 1 µM [15] was 2.84%. It also gave an IC50 [16] greater than 10 µM, an inhibition at 1 µM [16] of 0.28% and an IC50 [17] greater than 10 µM. The inhibition at 1 µM [17] was 0.52%, the IC50 [18] was greater than 10 µM and the inhibition at 1 µM [18] was 1.82%. The IC50 [19] was greater than 10 µM, the inhibition at 1 µM [19] was 2.03% and the IC50 [20] was greater than 10 µM. The inhibition at 1 µM [20] was 0.86%, the IC50 [21] was greater than 10 µM and the inhibition at 1 µM [21] was 0.62%. It also gave an IC50 [22] greater than 10 µM, an inhibition at 1 µM [22] of 0.77% and an IC50 [23] greater than 10 µM. It also gave an inhibition at 1 µM [23] of 0.21%, an IC50 [24] greater than 10 µM and an inhibition at 1 µM [24] of 0.07%. It also gave an IC50 [25] greater than 10 µM, an inhibition at 1 µM [25] of 0.1% and an IC50 [26] greater than 10 µM. The inhibition at 1 µM [26] was 2.34%, the IC50 [27] was greater than 10 µM and the inhibition at 1 µM [27] was 3.24%. For the same molecule, the IC50 [28] was greater than 10 µM, the inhibition at 1 µM [28] was 0.53% and the IC50 [29] was greater than 10 µM. It also gave an inhibition at 1 µM [29] of 4.16%, an IC50 [30] greater than 10 µM and an inhibition at 1 µM [30] of 0.93%. It also gave an IC50 [31] greater than 10 µM, an inhibition at 1 µM [31] of 0.09% and an IC50 [32] greater than 10 µM. For the same molecule, the inhibition at 1 µM [32] was 5.33%.
